Source: the NIST ThermoML archive (doi:10.1021/je201211f)

Key:
[1] = refractive index (Na D-line) (dimensionless); xn = mol fraction of the nth substance listed; settings: 298.15 K, 101 kPa, Liquid
[2] = xn = mol fraction of the nth substance listed; settings: 101 kPa, Liquid; for mass density: Vibrating tube method; for viscosity: Capillary tube (Ostwald / Ubbelohde) method

Cc1ccc(C)cc1 [1,4-dimethylbenzene] + CC(=O)O
[1]
Settings	refractive index
x2 = 0.0863	1.4874
x2 = 0.173	1.4805
x2 = 0.2386	1.4748
x2 = 0.3096	1.4682
x2 = 0.3987	1.4598
x2 = 0.4897	1.4498
x2 = 0.5621	1.4414
x2 = 0.6323	1.4325
x2 = 0.7212	1.4202
x2 = 0.7965	1.4084
x2 = 0.8784	1.3939
x2 = 0.955	1.3791

[2]
Settings	mass density, 293.15 K [kg/m3]	mass density, 298.15 K [kg/m3]	mass density, 303.15 K [kg/m3]	viscosity, 298.15 K [mPa·s]
x2 = 0.0415	864.09	859.71	855.31	–
x2 = 0.0863	–	–	–	0.6099
x2 = 0.1166	870.08	865.62	861.15	–
x2 = 0.157	873.55	869.05	864.53	–
x2 = 0.1651	874.28	869.76	865.24	–
x2 = 0.173	–	–	–	0.6095
x2 = 0.2386	–	–	–	0.6117
x2 = 0.2466	882	877.4	872.79	–
x2 = 0.2659	884.01	879.38	874.76	–
x2 = 0.3096	–	–	–	0.6159
x2 = 0.3246	890.49	885.78	881.08	–
x2 = 0.3987	–	–	–	0.625
x2 = 0.4234	902.44	897.64	892.81	–
x2 = 0.4717	909.04	904.17	899.29	–
x2 = 0.4897	–	–	–	0.6398
x2 = 0.5505	921.33	916.35	911.38	–
x2 = 0.5621	–	–	–	0.6575
x2 = 0.6323	–	–	–	0.68
x2 = 0.6435	938.19	933.07	927.95	–
x2 = 0.7212	–	–	–	0.7243
x2 = 0.7299	957.01	951.78	946.53	–
x2 = 0.7965	–	–	–	0.7753
x2 = 0.8099	977.97	972.61	967.24	–
x2 = 0.8784	–	–	–	0.8675
x2 = 0.8851	1001.76	996.29	990.81	–
x2 = 0.955	–	–	–	1.003
x2 = 0.9601	1030.99	1025.4	1019.76	–
